For orientation: logP means the decadic logarithm of the partition coefficient of the neutral form, usually between octanol and water. Read a low logP as a more hydrophilic compound. The term logD denotes the decadic logarithm of the distribution of all forms, ionised or not, between an organic phase and buffer at a given pH. Low values mean a more hydrophilic compound, high ones a more lipophilic compound.

One data set can be described thus: method code SF-HPLC, from DOI: 10.1002/jps.2600750811, PMID: 3772750.
Conditions: not given
In the case of `CC[C@H](C(=O)OCc1ccc(Cl)cc1)[C@H](COC(=O)c1ccccc1)Cc1cncn1C`, the logP came out at 4.9.
In turn, `CC[C@H](C(=O)OCc1ccccc1)[C@H](COC(=O)c1ccccc1)Cc1cncn1C` displayed a logP of 4.37.
On to `CCC(C(=O)OCc1ccccc1)C(COC(=O)Cc1ccccc1)Cc1cncn1C` (stereo unspecified), for which the logP came to 4.
For `CC[C@H](C(=O)OCc1ccccc1)[C@H](COC(=O)c1cccnc1)Cc1cncn1C`, the logP was found to be 3.05.

Still in this data set, the particulars now being: pH 7.4.
For the compound `CC[C@H](C(=O)OCc1ccc(C)cc1)[C@H](COC(C)=O)Cc1cncn1C`, the logD is 3.16.
The compound `CCCC(=O)OC[C@H](Cc1cncn1C)[C@H](CC)C(=O)OCc1ccc(C)cc1` yielded a logD of 4.19.
Turning to `CC[C@H](C(=O)OCc1ccccc1)[C@H](COC(=O)c1cccc(Cl)c1)Cc1cncn1C`, the logD worked out at 4.93.
`CCCC(=O)OCC(Cc1cncn1C)C(CC)C(=O)OCc1ccccc1` (stereo unspecified) showed a logD of 3.63.
With `CCCCCC(=O)OCC(Cc1cncn1C)C(CC)C(=O)OCc1ccccc1` (stereo unspecified), the logD came out at 4.6.
In turn, `CC[C@H](C(=O)OCc1ccc(C)cc1)[C@H](COC(=O)C(C)(C)C)Cc1cncn1C` came in with a logD of 4.4.
Same read-out and setting: with `CC[C@H](C(=O)OCc1ccc(C)cc1)[C@H](COC(=O)c1ccccc1)Cc1cncn1C` the figure was 4.7.

The values above are taken from the SangsterLogP compilation.
